ChEMBL document CHEMBL5465560, “Selectivity Literature for EUbOPEN Chemogenomic Library” (2024)

What was measured:
[1] = target: Receptor-type tyrosine-protein kinase FLT3 (Homo sapiens) (UniProt P36888); assay: (§1) Selectivity interaction (KinomeScan (DiscoverX)) EUB0000311b FLT3; details: at 1 µM
[2] = tested on: T1, Receptor-type tyrosine-protein kinase FLT3 (Homo sapiens), P36888 [K663Q]; assay: as §1; details: at 1 µM
T1 sequence (whole entry): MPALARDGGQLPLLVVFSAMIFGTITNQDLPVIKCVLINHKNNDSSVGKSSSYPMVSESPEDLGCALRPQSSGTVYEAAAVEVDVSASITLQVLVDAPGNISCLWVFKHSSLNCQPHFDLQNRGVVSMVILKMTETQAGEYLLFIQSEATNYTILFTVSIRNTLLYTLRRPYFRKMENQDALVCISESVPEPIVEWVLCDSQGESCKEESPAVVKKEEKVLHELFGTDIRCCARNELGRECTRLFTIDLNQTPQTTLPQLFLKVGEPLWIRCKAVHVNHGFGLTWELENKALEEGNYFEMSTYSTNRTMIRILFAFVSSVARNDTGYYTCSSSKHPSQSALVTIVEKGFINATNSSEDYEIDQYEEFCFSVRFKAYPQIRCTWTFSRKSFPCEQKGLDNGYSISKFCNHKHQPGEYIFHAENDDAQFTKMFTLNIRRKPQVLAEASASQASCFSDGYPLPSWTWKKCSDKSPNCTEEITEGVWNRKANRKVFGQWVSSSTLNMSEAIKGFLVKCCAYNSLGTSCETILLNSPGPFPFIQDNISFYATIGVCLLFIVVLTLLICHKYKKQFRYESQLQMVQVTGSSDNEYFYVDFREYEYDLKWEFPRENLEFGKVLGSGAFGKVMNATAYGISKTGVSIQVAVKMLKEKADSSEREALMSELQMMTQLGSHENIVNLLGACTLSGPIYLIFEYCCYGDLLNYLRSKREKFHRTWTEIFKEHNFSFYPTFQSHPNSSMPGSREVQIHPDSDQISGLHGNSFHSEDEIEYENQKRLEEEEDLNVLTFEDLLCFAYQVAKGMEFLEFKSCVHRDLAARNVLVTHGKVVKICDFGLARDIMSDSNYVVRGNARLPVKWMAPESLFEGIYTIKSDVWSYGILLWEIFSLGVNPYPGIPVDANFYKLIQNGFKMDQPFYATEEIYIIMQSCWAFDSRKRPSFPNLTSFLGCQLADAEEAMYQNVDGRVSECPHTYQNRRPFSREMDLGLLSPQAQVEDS

[3] = target: T2, Mitogen-activated protein kinase kinase kinase 12 (Homo sapiens) (UniProt Q12852); assay: Selectivity interaction (KinomeScan (DiscoverX)) EUB0000607a MAP3K12; details: at 10 µM
T2 sequence (whole entry): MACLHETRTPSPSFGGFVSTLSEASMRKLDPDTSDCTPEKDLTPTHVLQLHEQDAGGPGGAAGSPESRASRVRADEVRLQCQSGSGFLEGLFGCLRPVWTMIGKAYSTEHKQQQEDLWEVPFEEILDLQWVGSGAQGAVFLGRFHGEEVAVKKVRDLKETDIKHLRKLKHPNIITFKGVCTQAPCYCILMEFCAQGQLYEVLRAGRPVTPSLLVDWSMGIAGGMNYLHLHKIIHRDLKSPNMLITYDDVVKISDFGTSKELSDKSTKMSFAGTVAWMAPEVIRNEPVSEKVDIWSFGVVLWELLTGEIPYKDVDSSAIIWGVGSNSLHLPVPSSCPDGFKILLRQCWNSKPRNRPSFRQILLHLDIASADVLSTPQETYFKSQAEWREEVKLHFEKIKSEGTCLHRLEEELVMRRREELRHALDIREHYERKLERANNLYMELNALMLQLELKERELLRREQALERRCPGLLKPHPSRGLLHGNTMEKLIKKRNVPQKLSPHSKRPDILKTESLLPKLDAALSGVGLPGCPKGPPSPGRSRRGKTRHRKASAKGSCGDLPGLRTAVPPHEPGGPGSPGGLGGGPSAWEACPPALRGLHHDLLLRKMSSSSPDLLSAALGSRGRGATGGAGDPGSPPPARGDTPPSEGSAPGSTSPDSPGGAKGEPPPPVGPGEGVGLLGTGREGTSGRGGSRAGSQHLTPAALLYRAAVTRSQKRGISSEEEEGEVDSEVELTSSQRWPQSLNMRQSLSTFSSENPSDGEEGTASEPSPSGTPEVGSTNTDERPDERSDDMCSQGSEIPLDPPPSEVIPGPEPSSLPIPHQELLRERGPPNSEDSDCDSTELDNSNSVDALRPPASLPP

[4] = target: T3, Serine/threonine-protein kinase Sgk1 (Homo sapiens) (UniProt O00141); assay: Selectivity interaction (KinomeScan (DiscoverX)) EUB0000607a SGK1; details: at 10 µM
T3 sequence (whole entry): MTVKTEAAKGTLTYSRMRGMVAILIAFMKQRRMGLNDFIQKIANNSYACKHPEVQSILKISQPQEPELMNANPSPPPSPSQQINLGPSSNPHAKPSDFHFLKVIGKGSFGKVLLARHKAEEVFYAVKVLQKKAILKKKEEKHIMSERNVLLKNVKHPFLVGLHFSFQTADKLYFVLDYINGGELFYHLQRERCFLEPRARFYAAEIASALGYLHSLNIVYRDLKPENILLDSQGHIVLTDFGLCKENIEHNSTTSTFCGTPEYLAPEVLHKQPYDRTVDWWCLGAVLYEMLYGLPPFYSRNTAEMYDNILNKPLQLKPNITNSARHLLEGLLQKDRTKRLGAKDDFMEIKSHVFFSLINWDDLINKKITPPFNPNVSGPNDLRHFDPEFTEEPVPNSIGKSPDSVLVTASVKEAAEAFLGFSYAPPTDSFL

[5] = target: T4, 5-hydroxytryptamine receptor 2C (Homo sapiens) (UniProt P28335); assay: Selectivity interaction (Panel of kinases, GPCRs, ion channels and transporters (enzymatic assay)) EUB0000266bCl HTR2C
T4 sequence (whole entry): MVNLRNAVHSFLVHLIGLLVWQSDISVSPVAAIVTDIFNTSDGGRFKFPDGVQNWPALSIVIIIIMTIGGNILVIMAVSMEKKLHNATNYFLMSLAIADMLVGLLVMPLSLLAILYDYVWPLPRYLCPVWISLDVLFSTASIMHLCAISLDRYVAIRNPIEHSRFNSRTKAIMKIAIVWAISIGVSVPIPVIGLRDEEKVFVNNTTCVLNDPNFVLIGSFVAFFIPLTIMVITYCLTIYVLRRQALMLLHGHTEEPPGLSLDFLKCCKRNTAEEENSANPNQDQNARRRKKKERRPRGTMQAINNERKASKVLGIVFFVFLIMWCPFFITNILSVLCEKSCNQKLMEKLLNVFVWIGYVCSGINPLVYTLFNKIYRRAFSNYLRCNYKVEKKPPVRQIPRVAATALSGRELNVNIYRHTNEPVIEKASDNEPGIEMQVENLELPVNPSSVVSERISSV

## CCc1ccccc1C(=O)Nc1n[nH]c2c(C)c(F)c(C3C(C#N)=C(C)N(C)C(C)=C3C#N)cc12 [BAY-3827]
[1]
  % of control: 16%
[2]
  % of control: 13%

## CNC(=O)Nc1ccc(-c2nc(N3CC4CCC(C3)O4)c3cnn(C4CCC5(CC4)OCCO5)c3n2)cc1
[3]
  % of control: 93%
[4]
  % of control: 100%

## CCn1c(-c2nc3cc(C(=O)N4CCCC(N)C4)ccc3n2C)cc2ccccc21 (stereo not given)
[5]
  pXC50: 4.7 M
